Measurements from PubChem BioAssay AID330 (DTP/NCI, 2004).
Where “and” joins values, the source holds several entries; their conditions need not be identical. Equal entries are not always repeated. Inconclusive results and toxic doses are left out.

Tested on: P388 leukemia ip, CD2F1 mice, survival T/C
Assay: NCI In Vivo Anticancer Drug Screen. Data for tumor model P388 Leukemia (intraperitoneal) in CD2F1 (CDF1) mice
Conditions: endpoint: median survival time, higher = longer survival
Outline: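 Mice carrying the transplanted tumor received test compound or vehicle. Survival was recorded in each group, and the value is the treated-group measurement divided by that of the vehicle-treated control group.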

[1] = dose: 50.0 mg/kg/injection, schedule: Q01DX009 (ip), vehicle: Klucel (hydroxypropylcellulose) (HPC)
[2] = dose: 100.0 mg/kg/injection, schedule: Q01DX009 (ip), vehicle: Klucel (hydroxypropylcellulose) (HPC)
[3] = dose: 200.0 mg/kg/injection, schedule: Q01DX009 (ip), vehicle: Klucel (hydroxypropylcellulose) (HPC)
[4] = dose: 50.0 mg/kg/injection, schedule: Q01DX005 (ip), vehicle: saline with Tween-80
[5] = dose: 100.0 mg/kg/injection, schedule: Q01DX005 (ip), vehicle: saline with Tween-80
[6] = dose: 60.0 mg/kg/injection, schedule: Q01DX005 (ip), vehicle: saline with Tween-80
[7] = dose: 120.0 mg/kg/injection, schedule: Q01DX005 (ip), vehicle: saline with Tween-80
[8] = dose: 60.0 mg/kg/injection, schedule: Q01DX005 (ip), vehicle: Klucel (hydroxypropylcellulose) (HPC)
[9] = dose: 120.0 mg/kg/injection, schedule: Q01DX005 (ip), vehicle: Klucel (hydroxypropylcellulose) (HPC)
[10] = dose: 240.0 mg/kg/injection, schedule: Q01DX005 (ip), vehicle: Klucel (hydroxypropylcellulose) (HPC)
[11] = dose: 200.0 mg/kg/injection, schedule: Q01DX005 (ip), vehicle: saline with Tween-80
[12] = dose: 50.0 mg/kg/injection, schedule: Q01DX005 (ip), vehicle: Klucel (hydroxypropylcellulose) (HPC)
[13] = dose: 100.0 mg/kg/injection, schedule: Q01DX005 (ip), vehicle: Klucel (hydroxypropylcellulose) (HPC)
[14] = dose: 200.0 mg/kg/injection, schedule: Q01DX005 (ip), vehicle: Klucel (hydroxypropylcellulose) (HPC)
[15] = dose: 100.0 mg/kg/injection, schedule: Q01DX001 (ip), vehicle: saline with Tween-80
[16] = dose: 200.0 mg/kg/injection, schedule: Q01DX001 (ip), vehicle: saline with Tween-80
[17] = dose: 50.0 mg/kg/injection, schedule: Q01DX009 (ip), vehicle: saline with Tween-80
[18] = dose: 100.0 mg/kg/injection, schedule: Q01DX009 (ip), vehicle: saline with Tween-80

With `CC(Oc1ccccc1)C(=O)N=c1scc(-c2ccc(Br)cc2)n1-c1cccc2ccccc12` (stereo not given) the T/C (dose: 6.25 mg/kg/injection, schedule: Q01DX009 (ip), vehicle: gum acacia) was 106 % of control, the T/C (dose: 12.5 mg/kg/injection, schedule: Q01DX009 (ip), vehicle: gum acacia) was 106 % of control and the T/C (dose: 25.0 mg/kg/injection, schedule: Q01DX009 (ip), vehicle: gum acacia) was 105 % of control. The T/C (dose: 50.0 mg/kg/injection, schedule: Q01DX009 (ip), vehicle: gum acacia) was 101 % of control, the T/C (dose: 100.0 mg/kg/injection, schedule: Q01DX009 (ip), vehicle: gum acacia) was 92 % of control and the T/C (dose: 200.0 mg/kg/injection, schedule: Q01DX009 (ip), vehicle: gum acacia) was 98 % of control.
In the case of `O=c1oc2cc(O)ccc2c2oc3ccccc3c12`, the T/C (dose: 6.2 mg/kg/injection, schedule: Q01DX007 (ip), vehicle: carboxymethylcellulose (CMC)) is reported as 91 % of control, the T/C (dose: 12.5 mg/kg/injection, schedule: Q01DX007 (ip), vehicle: carboxymethylcellulose (CMC)) is reported as 91 % of control and the T/C (dose: 25.0 mg/kg/injection, schedule: Q01DX007 (ip), vehicle: carboxymethylcellulose (CMC)) is reported as 100 % of control.
`COc1ccc(OC)c(C(O)P(=O)(c2ccccc2)c2ccccc2)c1` (stereo not given) was tested, and the T/C [1] was 98 % of control, the T/C [2] was 93 % of control and the T/C [3] was 93 % of control.
In the case of `C=C(Cl)C(O)CNCCCC` (stereo not given), the T/C [4] is reported as 110 % of control and the T/C [5] is reported as 110 % of control.
With `COC(=O)C(C)Oc1ccc(OC#N)cc1` (stereo not given) the T/C [6] was 102 % of control, the T/C [7] was 101 % of control and the T/C (dose: 240.0 mg/kg/injection, schedule: Q01DX005 (ip), vehicle: saline with Tween-80) was 93 % of control.
In the case of `O=c1[nH]c2cc(Cl)ccc2nc1/C=C(\O)c1cccc([N+](=O)[O-])c1`, the T/C [8] is reported as 102 % of control, the T/C [9] is reported as 97 % of control and the T/C [10] is reported as 101 % of control.
`CCCCN1C(=O)NC(C)C1=O` (stereo not given) was tested, and the T/C [4] was 99 % of control, the T/C [5] was 108 % of control and the T/C [11] was 103 % of control.
`COc1cccc(/C=N\c2nc(-c3ccccc3Cl)cs2)c1O` was tested, and the T/C [12] was 89 % of control, the T/C [13] was 94 % of control and the T/C [14] was 105 % of control.
With `O=c1oc2c(c(N(c3ccccc3)c3ccccc3)c1Cl)Cc1ccccc1CC2` the T/C (dose: 50.0 mg/kg/injection, schedule: Q04DX003 (ip), vehicle: Klucel (hydroxypropylcellulose) (HPC)) was 95 % of control, the T/C (dose: 100.0 mg/kg/injection, schedule: Q04DX003 (ip), vehicle: Klucel (hydroxypropylcellulose) (HPC)) was 92 % of control and the T/C (dose: 200.0 mg/kg/injection, schedule: Q04DX003 (ip), vehicle: Klucel (hydroxypropylcellulose) (HPC)) was 91 % of control.
In the case of `Cc1ccn(C)n1`, the T/C (dose: 60.0 mg/kg/injection, schedule: Q01DX005 (ip), vehicle: saline) is reported as 96 % of control, the T/C (dose: 120.0 mg/kg/injection, schedule: Q01DX005 (ip), vehicle: saline) is reported as 93 % of control and the T/C (dose: 240.0 mg/kg/injection, schedule: Q01DX005 (ip), vehicle: saline) is reported as 100 % of control.
`c1ccc(C2=NCCN=C2c2ccccc2)cc1` was tested, and the T/C (dose: 100.0 mg/kg/injection, schedule: Q01DX001 (ip), vehicle: Klucel (hydroxypropylcellulose) (HPC)) was 94 % of control, the T/C (dose: 200.0 mg/kg/injection, schedule: Q01DX001 (ip), vehicle: Klucel (hydroxypropylcellulose) (HPC)) was 99 % of control and the T/C (dose: 400.0 mg/kg/injection, schedule: Q01DX001 (ip), vehicle: Klucel (hydroxypropylcellulose) (HPC)) was 93 % of control.
In the case of `O=C1Cn2c(c3ccccc3nc2=O)N1`, the T/C [4] is reported as 104 % of control, the T/C [5] is reported as 103 % of control and the T/C [11] is reported as 106 % of control.
For `COc1cc(C=Nc2cccc(C(=O)O)c2)ccc1N(CCCl)CCCl`, the T/C (dose: 25.0 mg/kg/injection, schedule: Q01DX009 (ip), vehicle: saline) was 122 % of control, the T/C (dose: 50.0 mg/kg/injection, schedule: Q04DX003 (ip), vehicle: saline with Tween-80) was 150 % of control and the T/C (dose: 66.0 mg/kg/injection, schedule: Q04DX003 (ip), vehicle: saline with Tween-80) was 272 % of control. The T/C (dose: 100.0 mg/kg/injection, schedule: Q04DX003 (ip), vehicle: saline with Tween-80) was 181 % of control.
In the case of `O=C(CN1CCCCC1)Nc1ccc2c(c1)C(=O)c1ccc(NC(=O)CN3CCCCC3)cc1C2=O`, the T/C [12] is reported as 90 % of control and 97 % of control, the T/C (dose: 50.0 mg/kg/injection, schedule: Q01DX005 (ip), vehicle: acid diluted with saline) is reported as 100 % of control and the T/C [13] is reported as 90 % of control and 94 % of control. The T/C (dose: 100.0 mg/kg/injection, schedule: Q01DX005 (ip), vehicle: acid diluted with saline) was 106 % of control, the T/C [14] was 90 % of control and 95 % of control and the T/C (dose: 200.0 mg/kg/injection, schedule: Q01DX005 (ip), vehicle: acid diluted with saline) was 108 % of control.
With `CC(=O)OCC1OC(SP(c2ccccc2)c2ccccc2)C(OC(C)=O)C(OC(C)=O)C1OC(C)=O` (stereo not given) the T/C (dose: 50.0 mg/kg/injection, schedule: Q01DX009 (ip), vehicle: saline + alcohol) was 116 % of control, the T/C (dose: 100.0 mg/kg/injection, schedule: Q01DX009 (ip), vehicle: saline + alcohol) was 118 % of control and the T/C (dose: 200.0 mg/kg/injection, schedule: Q01DX009 (ip), vehicle: saline + alcohol) was 108 % of control.
In the case of `CCC1(O)CC(c2ccccc2)N(C)C(c2ccccc2)C1` (stereo not given), the T/C [4] is reported as 99 % of control and the T/C [5] is reported as 95 % of control.
In the case of `CCC1(O)C(=O)OCc2c1cc1n(c2=O)Cc2ccccc2-1` (stereo not given), the T/C [15] is reported as 96 % of control, the T/C [16] is reported as 90 % of control and the T/C (dose: 400.0 mg/kg/injection, schedule: Q01DX001 (ip), vehicle: saline with Tween-80) is reported as 92 % of control.
With `NOCc1ccc(CON)cc1` the T/C [17] was 95 % of control, the T/C [18] was 95 % of control and the T/C (dose: 200.0 mg/kg/injection, schedule: Q01DX009 (ip), vehicle: saline with Tween-80) was 91 % of control.
`CN1CCC2(CC1)N=C1CCN(C)CC1S2` (stereo not given) was tested, and the T/C [15] was 102 % of control and the T/C [16] was 109 % of control.
For `COc1ccc(CCNC(=O)c2sc3ccccc3c2Cl)cc1OC`, the T/C [12] was 88 % of control, the T/C [13] was 91 % of control and the T/C [14] was 99 % of control.
With `COc1ccccc1NC(=O)CC(=O)c1ccc([N+](=O)[O-])cc1` the T/C (dose: 6.25 mg/kg/injection, schedule: Q04DX003 (ip), vehicle: saline sonified) was 100 % of control, the T/C (dose: 12.5 mg/kg/injection, schedule: Q04DX003 (ip), vehicle: saline sonified) was 100 % of control and the T/C (dose: 25.0 mg/kg/injection, schedule: Q04DX003 (ip), vehicle: saline sonified) was 100 % of control.
`COc1ccc(CN2CCCN(Cc3ccc(OC)cc3)P2(=O)Nc2ccc(OC)cc2)cc1` was tested, and the T/C [4] was 97 % of control, the T/C [5] was 100 % of control and the T/C [11] was 100 % of control.
For `COc1ccc2c(c1)c(OC)c(CC(O)C(C)(C)O)c(=O)n2C` (stereo not given), the T/C (dose: 110.0 mg/kg/injection, schedule: Q01DX001 (ip), vehicle: Klucel (hydroxypropylcellulose) (HPC)) was 96 % of control, the T/C (dose: 220.0 mg/kg/injection, schedule: Q01DX001 (ip), vehicle: Klucel (hydroxypropylcellulose) (HPC)) was 106 % of control and the T/C (dose: 440.0 mg/kg/injection, schedule: Q01DX001 (ip), vehicle: Klucel (hydroxypropylcellulose) (HPC)) was 110 % of control.
For `CCCCCCCCC(=O)N(C)OC`, the T/C (dose: 25.0 mg/kg/injection, schedule: Q01DX009 (ip), vehicle: saline with Tween-80) was 110 % of control, the T/C [17] was 110 % of control and the T/C [18] was 105 % of control.
In the case of `Cc1ccc2nc3ccccc3c(SCCCCCCSc3c4ccccc4nc4ccc(C)cc34)c2c1`, the T/C [8] is reported as 89 % of control, the T/C [6] is reported as 107 % of control and the T/C [9] is reported as 87 % of control. For the same compound, the T/C [7] was 90 % of control and the T/C [10] was 87 % of control.
For `CP1(=S)CCC(=O)C1` (stereo not given), the T/C (dose: 50.0 mg/kg/injection, schedule: Q01DX009 (ip), vehicle: saline) was 101 % of control, the T/C (dose: 100.0 mg/kg/injection, schedule: Q01DX009 (ip), vehicle: saline) was 101 % of control and the T/C (dose: 200.0 mg/kg/injection, schedule: Q01DX009 (ip), vehicle: saline) was 103 % of control.
In the case of `O=C1Nc2ccccc2/C1=N/N=C/c1ccco1`, the T/C [1] is reported as 96 % of control, the T/C [2] is reported as 87 % of control and the T/C [3] is reported as 88 % of control.
`CS(=O)(=O)N1CC=CCS1=O` (stereo not given) was tested, and the T/C (dose: 6.25 mg/kg/injection, schedule: Q01DX009 (ip), vehicle: Klucel (hydroxypropylcellulose) (HPC)) was 103 % of control, the T/C (dose: 12.5 mg/kg/injection, schedule: Q01DX009 (ip), vehicle: Klucel (hydroxypropylcellulose) (HPC)) was 108 % of control and the T/C (dose: 25.0 mg/kg/injection, schedule: Q01DX009 (ip), vehicle: Klucel (hydroxypropylcellulose) (HPC)) was 108 % of control.
